Assay results: US7888061B2, “Method of stabilising or reactivating a creatinine sensor with a divalent manganese ion” (Radiometer Medical ApS, priority 2005, dated 2011)
Where two headings read alike, the source gives them in different places.

Legend:
[1] = molecular target: T1, Creatinine Amidohydrolase (Creatininase) (Pseudomonas putida, UniProt P83772); details: cited from earlier work; for reactivation of the inactive apoenzyme: addition of 0.5 mM, zinc ions removed from creatininase
T1 sequence (P83772 1-260): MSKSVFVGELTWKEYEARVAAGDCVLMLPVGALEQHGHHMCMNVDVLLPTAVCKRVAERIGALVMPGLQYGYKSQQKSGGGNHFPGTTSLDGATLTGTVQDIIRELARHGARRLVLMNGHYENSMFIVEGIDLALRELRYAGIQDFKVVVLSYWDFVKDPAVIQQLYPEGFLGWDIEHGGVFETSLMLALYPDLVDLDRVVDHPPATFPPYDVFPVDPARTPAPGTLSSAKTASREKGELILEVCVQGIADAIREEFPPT

[2] = tested on: Creatinine Amidohydrolase; details: 1.0 mM solution; cited from earlier work
creatininase = creatininase (Pseudomonas putida, UniProt P83772)
Description: The following examples are intended to illustrate the invention without limiting the invention. In all of the examples, creatininase from Pseudomonas putida was used, obtained from Roche Diagnostics, Mannheim, Germany.
The stability of the creatinine sensor was tested by observing the sensor responses to calibration solutions containing each of the substrates creatinine and creatine.
The calibration solutions were prepared by dissolving about 200 μM creatinine in the Radiometer Calibration Solution 1 S1720 and about 200 μM creatine in the Radiometer Calibration Solution 2 S1730. These solutions were repeatedly introduced into the apparatus one after the other and sensor responses were obtained.
It is convenient to depict the relation between the creatinine sensor response to creatinine relative to the creatinine sensor response to creatine by the following ratio: R=response to creatinine/response to creatine.
If R is constant, the creatininase activity is stable. A declining value for R indicates an overall loss of creatininase activity.
The same experiment as described above was conducted with five creatinine sensors having a significant initial excess of creatininase. In FIG. 4, R is depicted for this experiment.

[3] = molecular target: heat-treated creatininase (Pseudomonas putida, UniProt P83772); details: enzyme assays
lactate oxidase = lactate oxidase (Aerococcus viridans, UniProt Q44467)
glucose oxidase = glucose oxidase (Aspergillus niger, UniProt P13006)
urease = urease (Canavalia ensiformis, UniProt P07374)
urease, sequence (P07374 whole entry, looked up): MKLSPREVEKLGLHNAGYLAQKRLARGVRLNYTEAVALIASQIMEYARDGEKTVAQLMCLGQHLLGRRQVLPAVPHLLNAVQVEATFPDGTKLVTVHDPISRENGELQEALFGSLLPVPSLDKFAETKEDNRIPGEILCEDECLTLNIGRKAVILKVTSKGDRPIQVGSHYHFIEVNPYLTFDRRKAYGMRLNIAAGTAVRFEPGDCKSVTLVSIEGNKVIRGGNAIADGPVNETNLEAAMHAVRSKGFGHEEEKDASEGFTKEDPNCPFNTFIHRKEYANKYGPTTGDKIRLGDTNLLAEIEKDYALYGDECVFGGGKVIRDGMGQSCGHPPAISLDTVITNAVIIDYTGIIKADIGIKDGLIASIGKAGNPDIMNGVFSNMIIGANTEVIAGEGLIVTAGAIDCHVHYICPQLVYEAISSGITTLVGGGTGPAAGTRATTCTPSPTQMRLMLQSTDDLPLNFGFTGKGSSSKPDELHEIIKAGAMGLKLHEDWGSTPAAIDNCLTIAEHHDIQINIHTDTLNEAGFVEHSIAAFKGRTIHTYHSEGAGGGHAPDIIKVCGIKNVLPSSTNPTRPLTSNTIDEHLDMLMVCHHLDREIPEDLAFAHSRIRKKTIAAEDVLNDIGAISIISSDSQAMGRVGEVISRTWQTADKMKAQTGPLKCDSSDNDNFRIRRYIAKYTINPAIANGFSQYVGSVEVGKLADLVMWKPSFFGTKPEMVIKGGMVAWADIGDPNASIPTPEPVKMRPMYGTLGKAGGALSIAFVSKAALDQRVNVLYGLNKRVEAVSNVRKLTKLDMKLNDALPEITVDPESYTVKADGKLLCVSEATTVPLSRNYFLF

lactate oxidase, sequence (Q44467 whole entry, species assumed): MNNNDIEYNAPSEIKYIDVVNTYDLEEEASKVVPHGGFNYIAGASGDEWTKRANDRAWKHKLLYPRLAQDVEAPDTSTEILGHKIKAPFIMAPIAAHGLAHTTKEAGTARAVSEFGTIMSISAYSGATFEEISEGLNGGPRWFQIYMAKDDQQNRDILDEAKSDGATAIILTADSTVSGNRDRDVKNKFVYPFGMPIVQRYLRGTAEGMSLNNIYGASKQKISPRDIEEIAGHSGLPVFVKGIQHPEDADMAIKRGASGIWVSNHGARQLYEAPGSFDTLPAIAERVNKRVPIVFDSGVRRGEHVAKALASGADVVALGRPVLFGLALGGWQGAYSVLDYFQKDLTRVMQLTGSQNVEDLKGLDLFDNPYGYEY
glucose oxidase, sequence (P13006 17-605, species assumed): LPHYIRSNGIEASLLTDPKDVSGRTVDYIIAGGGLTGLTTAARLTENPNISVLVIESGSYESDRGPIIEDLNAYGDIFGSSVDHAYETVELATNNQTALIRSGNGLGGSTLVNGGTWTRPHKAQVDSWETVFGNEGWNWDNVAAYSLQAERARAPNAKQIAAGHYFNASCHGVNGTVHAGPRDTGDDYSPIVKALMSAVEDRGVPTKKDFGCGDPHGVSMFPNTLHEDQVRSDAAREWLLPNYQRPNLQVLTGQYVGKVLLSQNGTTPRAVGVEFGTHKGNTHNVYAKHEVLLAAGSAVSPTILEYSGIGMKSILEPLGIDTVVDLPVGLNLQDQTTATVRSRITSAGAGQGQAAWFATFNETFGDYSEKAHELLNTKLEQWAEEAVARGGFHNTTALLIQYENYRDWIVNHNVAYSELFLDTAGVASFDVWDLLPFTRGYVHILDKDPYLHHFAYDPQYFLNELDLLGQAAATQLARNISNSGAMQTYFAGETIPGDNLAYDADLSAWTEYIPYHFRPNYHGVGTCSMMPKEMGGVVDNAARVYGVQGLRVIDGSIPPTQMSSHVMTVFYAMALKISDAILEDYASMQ

Row | SMILES | inhibition of the activity of creatininase ([1]; purified, heat-treated enzyme) | reactivation of the inactive apoenzyme [1] | further results
1 | [Ca+2] [Ca] | inhibit slightly |  | 
2 | [Co+2] [Co] | inhibit slightly | reactivated | 
3 | O=C(O)CN(CCN(CC(=O)O)CC(=O)O)CC(=O)O [EDTA, ethylenediamine tetraacetic acid] |  |  | inhibition of the activity of creatininase [1]: only slight inhibition
4 | [Fe+2] [Fe] | inhibit slightly | reactivated | 
5 | [Mg+2] [Mg] | inhibit slightly | reactivated | 
6 | [Cl][Mn][Cl] [MnCl2] |  |  | reactivation of metal ion depleted creatininase [2]: reactivated
7 | [Ni+2] [Ni] | inhibit slightly | reactivated | 
8 | [Zn+2] [Zn] | inhibit slightly | reactivated | 
9 | [Mn+2] [divalent manganese ion] | inhibit slightly | reactivated | R = response to creatinine/response to creatine (relative sensor response) (creatininase; 2 μM in Rinse Solution for 5½ days after 2¾ days without, two sensors with nearly no initial excess of creatininase, FIG. 3): approximately 0.8; R = response to creatinine/response to creatine (relative sensor response) (creatininase; 10 μM in Rinse Solutions after 18 days without (R had decreased to 0.9), five sensors with significant initial excess of creatininase, FIG. 4): approximately 1.3; activation of creatininase (creatininase; concentrations of about 0.01 to about 150 μM, without adverse effect on the other enzymes of the dual sensor system): activate creatininase; time for which the sensor response level was maintained (creatininase; continuous treatment at about 2 μM, FIG. 3): at least 5 days; time for which the sensor response level was maintained (creatininase; continuous treatment at about 10 μM, FIG. 4): at least 5 days; effect on heat-treated creatininase [3]: favourable effect; deactivation of lactate oxidase (lactate oxidase): not to deactivate; deactivation of glucose oxidase (glucose oxidase): not to deactivate; deactivation of urease (urease): not to deactivate
